68 sequences from the supplement of paper PMC11208160 can be followed below.
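Also: IS621 bridge recombinase in Escherichia coli cells against a fixed T5 target plasmid.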

The data set is described as follows: recombinant UMI read abundance after kanamycin selection (control-corrected) (log10(CPM+1)); higher = more efficient recombination; extreme values may be limits of the assay; sequences stand for … in AGTGCAGAGAAAATCGGCCAGTTTTCTCTGCCTGCAGTCCGCATGCCGTGGGACCCCTTGGGTTCTAACCTGTTGCCTAGATTTATGCAGCGGACTGCCTTTCTCCCAAAGTGATAAACCGG…AGGTTGGTTTCACT; site = the 11-nt donor. In a few lines:
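In a pooled Escherichia coli screen for the IS621 bridge recombinase, donor and donor-binding-loop pairs were each placed with a 12-nt UMI on a plasmid bearing a promoterless kanamycin gene. This library was co-electroporated with a target plasmid encoding a fixed target and T7-inducible recombinase, and cells were plated either on IPTG (0.07 mM) plus kanamycin or without selection, in two replicates each. Recombinant UMIs were PCR-amplified across the donor–target junction and sequenced, and counts were converted to CPM, averaged over replicates, scaled by control-derived factors and reported as log10(CPM+1).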
With “CGTGGTTCATGGACCGGTTTTCCCGGTAATCCGTATTTGCG (site CGTGGTTCTCG)”, the “recombinant UMI read abundance (log10)” value was 2.1. “CGTGTAACATGGACCGGTTTTCCCGGTAATCCGTATTTGCG (site CGTGTAACTCG)”: the “recombinant UMI read abundance (log10)” value stood at 1.78. Under “CGTGTCACATGGACCGGTTTTCCCGGTAATCCGTATTTGGT (site CGTGTCACTAC)” stands 1.31; under “CGTGTCGCATGGACCGGTTTTCCCGGTAATCCGTATTTGTG (site CGTGTCGCTCA)”, 0.701. Turning to “CGTGTGTCATGGACCGGTTTTCCCGGTAATCCGTATTTGGA (site CGTGTGTCTTC)”, the “recombinant UMI read abundance (log10)” value came out at 1.86. In the case of “CGTTAGACATGGACCGGTTTTCCCGGTAATCCGTATTTGCG (site CGTTAGACTCA)” it was 0.0494; in that of “CGTTAGACATGGACCGGTTTTCCCGGTAATCCGTATTTGCG (site CGTTAGACTCC)”, 0.0162; in that of “CGTTAGACATGGACCGGTTTTCCCGGTAATCCGTATTTGCG (site CGTTAGACTCG)”, 1.85. Consider “CGTTAGACATGGACCGGTTTTCCCGGTAATCCGTATTTGCG (site CGTTAGACTCT)”, for which the “recombinant UMI read abundance (log10)” value came to 0.911. For the sequence “CGTTAGCCATGGACCGGTTTTCCCGGTAATCCGTATTTGAG (site CGTTAGACTCT)”, the “recombinant UMI read abundance (log10)” value was determined as 0.00766.

“CGTTAGCCATGGACCGGTTTTCCCGGTAATCCGTATTTGAG (site CGTTAGCCTCT)”: the “recombinant UMI read abundance (log10)” value was determined as 0.184. Regarding “CGTTAGCCATGGACCGGTTTTCCCGGTAATCCGTATTTGAG (site CGTTAGGCTCT)”, the “recombinant UMI read abundance (log10)” value worked out at 0.00758.

Take “CGTTAGCCATGGACCGGTTTTCCCGGTAATCCGTATTTGAG (site CGTTAGTCTCT)”: the “recombinant UMI read abundance (log10)” value was found to be 0.737. Take “CGTTATACATGGACCGGTTTTCCCGGTAATCCGTATTTGAG (site CGTTAAACTCT)”: the “recombinant UMI read abundance (log10)” value worked out at 0. In the case of “CGTTATACATGGACCGGTTTTCCCGGTAATCCGTATTTGAG (site CGTTACACTCT)” it was 0.0313; in that of “CGTTATACATGGACCGGTTTTCCCGGTAATCCGTATTTGAG (site CGTTAGACTCT)”, 0.0101; in that of “CGTTATACATGGACCGGTTTTCCCGGTAATCCGTATTTGAG (site CGTTATACTCT)”, 1.25. Consider “CGTTATCCATGGACCGGTTTTCCCGGTAATCCGTATTTGTC (site CGTTATCCTGA)”, for which the “recombinant UMI read abundance (log10)” value amounted to 1.46. Under “CGTTCATCATGGACCGGTTTTCCCGGTAATCCGTATTTGCC (site CGATCATCTAG)” stands 0. Under “CGTTCATCATGGACCGGTTTTCCCGGTAATCCGTATTTGCC (site CGTTCATCTGG)” stands 2.32; under “CGTTCATCATGGACCGGTTTTCCCGGTAATCCGTATTTGTG (site CGTTCATCTCA)”, 0.00491; under “CGTTCCCCATGGACCGGTTTTCCCGGTAATCCGTATTTGTG (site CGTTCCCCTCA)”, 0.365. Under “CGTTCGACATGGACCGGTTTTCCCGGTAATCCGTATTTGTT (site CGATCGACTAA)” stands 0.0104; under “CGTTCGACATGGACCGGTTTTCCCGGTAATCCGTATTTGTT (site CGCTCGACTAA)”, 0.0144. Consider “CGTTCGACATGGACCGGTTTTCCCGGTAATCCGTATTTGTT (site CGGTCGACTAA)”, for which the “recombinant UMI read abundance (log10)” value worked out at 0.0244. In the case of “CGTTCGACATGGACCGGTTTTCCCGGTAATCCGTATTTGTT (site CGTTCGACTAA)” it was 0.0172; in that of “CGTTCGTCATGGACCGGTTTTCCCGGTAATCCGTATTTGCT (site CGATCATCTAG)”, 0. Under “CGTTCGTCATGGACCGGTTTTCCCGGTAATCCGTATTTGCT (site CGTTCGTCTAG)” stands 1.95; under “CGTTGAACATGGACCGGTTTTCCCGGTAATCCGTATTTGTT (site CGTAGAACTAA)”, 0.00276; under “CGTTGAACATGGACCGGTTTTCCCGGTAATCCGTATTTGTT (site CGTCGAACTAA)”, 0.0175. Under “CGTTGAACATGGACCGGTTTTCCCGGTAATCCGTATTTGTT (site CGTGGAACTAA)” stands 0.0247; under “CGTTGAACATGGACCGGTTTTCCCGGTAATCCGTATTTGTT (site CGTTGAACTAA)”, 0.623; under “CGTTGTGCATGGACCGGTTTTCCCGGTAATCCGTATTTGAG (site CGTTGTGCTCT)”, 1.77. On to “CGTTTGGCATGGACCGGTTTTCCCGGTAATCCGTATTTGCC (site CGTTTGGCTAG)”, for which the “recombinant UMI read abundance (log10)” value came to 0.

In the case of “CGTTTGGCATGGACCGGTTTTCCCGGTAATCCGTATTTGCC (site CGTTTGGCTCG)”, the “recombinant UMI read abundance (log10)” value was found to be 0.0176. Under “CGTTTGGCATGGACCGGTTTTCCCGGTAATCCGTATTTGCC (site CGTTTGGCTGG)” stands 0. As to “CGTTTGGCATGGACCGGTTTTCCCGGTAATCCGTATTTGCC (site CGTTTGGCTTG)”, the “recombinant UMI read abundance (log10)” value came out at 0. For the sequence “CTAATAGCATGGACCGGTTTTCCCGGTAATCCGTATTTGAT (site CTAATAGCTAT)”, the “recombinant UMI read abundance (log10)” value is 2.21. “CTAATATCATGGACCGGTTTTCCCGGTAATCCGTATTTGTC (site CTAATATCTGA)”: the “recombinant UMI read abundance (log10)” value is 2.49. Under “CTAATATCATGGACCGGTTTTCCCGGTAATCCGTATTTGTC (site CTAGTATCTGT)” stands 1.1. “CTAATCTCATGGACCGGTTTTCCCGGTAATCCGTATTTGAC (site CTAATCTCTGT)”: the “recombinant UMI read abundance (log10)” value came out at 2.44.

On to “CTAATCTCATGGACCGGTTTTCCCGGTAATCCGTATTTGAC (site CTAGTATCTGT)”, for which the “recombinant UMI read abundance (log10)” value came to 0. With “CTAATTACATGGACCGGTTTTCCCGGTAATCCGTATTTGCA (site CTAATTACTTG)”, the “recombinant UMI read abundance (log10)” value came out at 2.07. Under “CTACAAACATGGACCGGTTTTCCCGGTAATCCGTATTTGGA (site CTACAAACTTC)” stands 1.28; under “CTACAAACATGGACCGGTTTTCCCGGTAATCCGTATTTGGA (site CTACCAACTTC)”, 0.0174. Under “CTACAAACATGGACCGGTTTTCCCGGTAATCCGTATTTGGA (site CTACGAACTTC)” stands 0.0102. Under “CTACAAACATGGACCGGTTTTCCCGGTAATCCGTATTTGGA (site CTACTAACTTC)” stands 0.313; under “CTACCATCATGGACCGGTTTTCCCGGTAATCCGTATTTGGT (site CTACCATCTAC)”, 0.00462; under “CTACGAACATGGACCGGTTTTCCCGGTAATCCGTATTTGGA (site CTACAAACTTC)”, 1.46. Turning to “CTACGAACATGGACCGGTTTTCCCGGTAATCCGTATTTGGA (site CTACCAACTTC)”, the “recombinant UMI read abundance (log10)” value was 0.0142. Turning to “CTACGAACATGGACCGGTTTTCCCGGTAATCCGTATTTGGA (site CTACGAACTTC)”, the “recombinant UMI read abundance (log10)” value is 1.91.

Regarding “CTACGAACATGGACCGGTTTTCCCGGTAATCCGTATTTGGA (site CTACTAACTTC)”, the “recombinant UMI read abundance (log10)” value was determined as 0.113.

For “CTACTAACATGGACCGGTTTTCCCGGTAATCCGTATTTGGC (site CTACTAACTAC)”, the “recombinant UMI read abundance (log10)” value was 0.561.

Turning to “CTACTAACATGGACCGGTTTTCCCGGTAATCCGTATTTGGC (site CTACTAACTCC)”, the “recombinant UMI read abundance (log10)” value is 0.31. With “CTACTAACATGGACCGGTTTTCCCGGTAATCCGTATTTGGC (site CTACTAACTGC)”, the “recombinant UMI read abundance (log10)” value came to 2.51. On to “CTACTAACATGGACCGGTTTTCCCGGTAATCCGTATTTGGC (site CTACTAACTTC)”, for which the “recombinant UMI read abundance (log10)” value came to 1.31. Under “CTACTAACATGGACCGGTTTTCCCGGTAATCCGTATTTGGG (site CTACTAACTAC)” stands 0.0214. In the case of “CTACTAACATGGACCGGTTTTCCCGGTAATCCGTATTTGGG (site CTACTAACTCC)” it was 0.54. Take “CTACTAACATGGACCGGTTTTCCCGGTAATCCGTATTTGGG (site CTACTAACTGC)”: the “recombinant UMI read abundance (log10)” value worked out at 0.0111. In the case of “CTACTAACATGGACCGGTTTTCCCGGTAATCCGTATTTGGG (site CTACTAACTTC)” it was 0.0179; in that of “CTACTATCATGGACCGGTTTTCCCGGTAATCCGTATTTGCC (site CTACTATCTGG)”, 2.95; in that of “CTACTATCATGGACCGGTTTTCCCGGTAATCCGTATTTGCC (site CTAGTATCTGT)”, 0. In the case of “CTACTATCATGGACCGGTTTTCCCGGTAATCCGTATTTGGA (site CTACTAACTTC)” it was 0.127; in that of “CTACTATCATGGACCGGTTTTCCCGGTAATCCGTATTTGGA (site CTACTACCTTC)”, 0.00618. Regarding “CTACTATCATGGACCGGTTTTCCCGGTAATCCGTATTTGGA (site CTACTAGCTTC)”, the “recombinant UMI read abundance (log10)” value came out at 0.0148. In the case of “CTACTATCATGGACCGGTTTTCCCGGTAATCCGTATTTGGA (site CTACTATCTTC)” it was 2.71; in that of “CTAGAATCATGGACCGGTTTTCCCGGTAATCCGTATTTGTC (site CTAGAATCTGA)”, 2.71; in that of “CTAGAATCATGGACCGGTTTTCCCGGTAATCCGTATTTGTC (site CTAGTATCTGT)”, 0.307.
